The text below walks through data of patent publication US8362018B2, “Substituted imidazo[1,2-a]pyrazine compounds useful for the treatment of viral infections” (Biofocus DPI, Ltd., priority 2007, dated 2013).

Some results are limits rather than exact numbers.

One series deals with HCV replicon. The series is described as follows: anti-viral assay (EC50), Table 13. Format: cell-based. The conditions noted are these: Hepatitis C virus, anti-viral assays. From the text:
The ability of a compound to inhibit HCV replication can be measured in vitro or using animal models using models and assays well known to those of skill in the art (e.g. Pietschmann et al, Clin Liver Dis. 7(1)c23-43, 2003). In vitro techniques for measuring the ability of a compound to inhibit HCV replication involve using HCV or an HCV replicon. Because HCV is difficult to grow in culture, particular in vitro techniques employ an HCV replicon.
An HCV replicon is an RNA molecule able to autonomously replicate in a cultured cell, such as Huh7. The HCV replicon expresses the HCV derived components of the replication machinery and contains cis-elements required for replication in a cultured cell. […]

A short description of series [1]: cytotoxicity measurement (CC50), Table 13. Format: cell-based. As to conditions: human, Huh7 cells.

One may read the EC50 as the concentration giving half of the maximal effect. Read a low EC50 as higher potency in that assay. The CC50 is the concentration at which the toxic effect on the cells reaches its halfway point.

In turn, `CS(=O)(=O)Nc1cccc(-c2cnc3c(NCc4ccc(S(N)(=O)=O)cc4)nccn23)c1` [Compound 71] gave an EC50 with HCV replicon of 1000 to 20000 nM. In series [1], this compound came in with a CC50 below 35 µM.
On the same counts, the results for `Oc1ccc(-c2cnc3c(NCc4ccccc4)nccn23)cc1` [Compound 24] are 1000 to 20000 nM and below 35 µM.
The corresponding values for `Oc1cccc(-c2cnc3c(NCc4ccncc4)nccn23)c1` [Compound 6] are 1000 to 20000 nM and above 35 µM.
The corresponding values for `N#Cc1ccc(CNc2nccn3c(-c4ccc(O)cc4)cnc23)cc1` [Compound 42] are 1000 to 20000 nM and below 35 µM.
Turning to `NS(=O)(=O)c1ccc(CNc2nccn3c(-c4ccc(F)cc4)cnc23)cc1` [Compound 11], the EC50 with HCV replicon was in the range of 1000 to 20000 nM. In addition, the CC50 in series [1] was above 35 µM.
On the same counts, the results for `COc1ccc(-c2cnc3c(NCc4ccc(CO)cc4)nccn23)cc1OC` [Compound 93, (4-{[3-(3,4-Dimethoxy-phenyl)-imidazol[1,2-a]pyrazin-8-ylamino]-methyl}-phenyl)-methanol] are 1000 to 20000 nM and above 35 µM.
On the same counts, the results for `COc1ccc(-c2cnc3c(NCc4ccc(Cl)cc4)nccn23)cc1OC` [Compound 97] are 1000 to 20000 nM and below 35 µM.
The corresponding values for `NS(=O)(=O)c1ccc(CNc2nc(Br)cn3c(Br)cnc23)cc1` [Compound 113, 4-[(3,6-Dibromo-imidazo[1,2-a]pyrazin-8-ylamino)-methyl]-benzenesulfonamide] are above 20000 nM and above 35 µM.
For `COc1cc(-c2cnc3c(NCc4cccc(S(N)(=O)=O)c4)nccn23)ccc1O` [Compound 56], the EC50 in the series with HCV replicon was below 1000 nM. The compound further showed a CC50 in series [1] below 35 µM.
The corresponding values for `COc1ccc(-c2cnc3c(NCc4ccc(S(C)(=O)=O)cc4)nccn23)cc1OC` [Compound 19] are 1000 to 20000 nM and above 35 µM.
In the series with HCV replicon, `Oc1ccc(-c2cnc3c(Nc4ccccc4)nccn23)cc1` [Compound 96] yielded an EC50 above 20000 nM. Further, the CC50 in series [1] was above 35 µM.
On the same counts, the results for `NS(=O)(=O)c1ccc(CNc2nccn3c(-c4ccc(CO)s4)cnc23)cc1` [Compound 45] are 1000 to 20000 nM and above 35 µM.
On the same counts, the results for `NS(=O)(=O)c1ccc(CNc2nccn3c(-c4ccc(OC(F)(F)F)cc4)cnc23)cc1` [Compound 15] are above 20000 nM and above 35 µM.
The corresponding values for `COc1ccc(-c2cnc3c(NCc4cnccn4)nccn23)cc1OC` [Compound 23] are 1000 to 20000 nM and above 35 µM.
Compound `NS(=O)(=O)c1ccc(CNc2nccn3c(-c4cccc(CO)c4)cnc23)cc1` [Compound 75] showed an EC50 in the series with HCV replicon of 1000 to 20000 nM. This compound also showed a CC50 in series [1] below 35 µM.
On the same counts, the results for `Cc1ccccc1CNc1nccn2c(-c3ccc(O)cc3)cnc12` [Compound 36] are 1000 to 20000 nM and below 35 µM.
On the same counts, the results for `Cc1cnc(NCc2ccc(S(N)(=O)=O)cc2)c2ncc(-c3ccc(O)cc3)n12` [Compound 108, 4-{[3-(4-Hydroxy-phenyl)-5-methyl-imidazo[1,2-a]pyrazin-8-ylamino]-methyl}-benzenesulfonamide] are below 1000 nM and below 35 µM.
`COc1ccc(-c2cnc3c(NCCc4ccncc4)nccn23)cc1OC` [Compound 62] displayed an EC50 with HCV replicon of 1000 to 20000 nM. In series [1], this compound yielded a CC50 below 35 µM.
The corresponding values for `CNC(=O)c1ccc(CNc2nccn3c(-c4ccc(O)cc4)cnc23)cc1` [Compound 49] are 1000 to 20000 nM and below 35 µM.
On the same counts, the results for `COC(=O)c1ccc(CNc2nccn3c(-c4ccc(OC)c(OC)c4)cnc23)cc1` [Compound 13] are 1000 to 20000 nM and below 35 µM.
On the same counts, the results for `NS(=O)(=O)c1ccc(CNc2nccn3c(-c4ccc(F)c(Cl)c4)cnc23)cc1` [Compound 10] are 1000 to 20000 nM and above 35 µM.
On to `NS(=O)(=O)c1ccc(CNc2nccn3c(-c4ccc(O)cc4F)cnc23)cc1` [Compound 91, 4-{[3-(2-Fluoro-4-hydroxy-phenyl)-imidazo[1,2-a]pyrazin-8-ylamino]-methyl}-benzenesulfonamide], for which the EC50 in the series with HCV replicon is below 1000 nM. This compound gave a CC50 in series [1] above 35 µM.
In the series on HCV replicon, `COc1cc(-c2cnc3c(NCc4ccc(S(N)(=O)=O)cc4)nccn23)cc(Cl)c1O` [Compound 31] came in with an EC50 of 1000 to 20000 nM. Moreover, the CC50 in series [1] is above 35 µM.
The corresponding values for `COc1ccc(-c2cnc3c(NCc4cccnc4)nccn23)cc1OC` [Compound 7] are 1000 to 20000 nM and above 35 µM.
In the series with HCV replicon, `COc1ccc2cc(-c3cnc4c(NCc5ccc(S(N)(=O)=O)cc5)nccn34)ccc2c1` [Compound 55] had a half-maximal effective concentration (EC50) of 1000 to 20000 nM. The CC50 in series [1] is below 35 µM.
On the same counts, the results for `NC(=O)c1cc(-c2cnc3c(NCc4ccc(S(N)(=O)=O)cc4)nccn23)ccc1O` [Compound 94, 2-Hydroxy-5-[8-(4-sulfamoyl-benzylamino)-imidazo[1,2-a]pyrazin-3-yl]-benzamide] are 1000 to 20000 nM and above 35 µM.
The corresponding values for `CC(=O)c1cccc(-c2cnc3c(NCCc4cccnc4)nccn23)c1` [Compound 84] are 1000 to 20000 nM and below 35 µM.
On the same counts, the results for `Oc1cccc(-c2cnc3c(NCc4cccs4)nccn23)c1` [Compound 80] are 1000 to 20000 nM and below 35 µM.
In the case of `Cc1cc(-c2cnc3c(NCc4ccc(S(N)(=O)=O)cc4)nccn23)cc(C)c1O` [Compound 41], in the series with HCV replicon, the EC50 lay in the range of 1000 to 20000 nM. The same compound showed a CC50 in series [1] below 35 µM.
The corresponding values for `COc1ccc(-c2cnc3c(NCCCn4ccnc4)nccn23)cc1OC` [Compound 30] are above 20000 nM and above 35 µM.
The corresponding values for `NS(=O)(=O)c1ccc(CNc2nccn3c(-c4cccc(O)c4)cnc23)cc1` [Compound 65] are 1000 to 20000 nM and below 35 µM.
In the series on HCV replicon, `Oc1ccc(-c2cnc3c(NCc4ccncc4)nccn23)cc1` [Compound 5] registered an EC50 of 1000 to 20000 nM. For the same compound, the CC50 in series [1] was above 35 µM.
Compound `Oc1ccc(-c2cnc3c(NCc4cccs4)nccn23)cc1` [Compound 59] registered an EC50 in the series with HCV replicon of 1000 to 20000 nM. The compound further returned a CC50 in series [1] below 35 µM.
The corresponding values for `COc1ccccc1-c1cnc2c(NCc3ccc(S(N)(=O)=O)cc3)nccn12` [Compound 86] are 1000 to 20000 nM and below 35 µM.
In the series with HCV replicon, `CS(=O)(=O)Nc1cccc(-c2cnc3c(NCCc4ccncc4)nccn23)c1` [Compound 4] displayed an EC50 of 1000 to 20000 nM. In series [1], this compound came in with a CC50 above 35 µM.
On the same counts, the results for `NS(=O)(=O)c1cccc(CNc2nccn3c(-c4ccc(O)c(F)c4)cnc23)c1` [Compound 57] are below 1000 nM and above 35 µM.
On the same counts, the results for `CC(=O)c1cccc(-c2cnc3c(NCc4ccc(S(N)(=O)=O)cc4)nccn23)c1` [Compound 18] are 1000 to 20000 nM and above 35 µM.
On the same counts, the results for `COc1cc(-c2c(C)nc3c(NCc4ccc(S(N)(=O)=O)cc4)nccn23)ccc1O` [Compound 105] are below 1000 nM and above 35 µM.
In the series on HCV replicon, `COc1cc(-c2cnc3c(NCc4ccc(S(N)(=O)=O)cc4)nc(C)cn23)ccc1O` [Compound 112] showed an EC50 below 1000 nM. In series [1], this compound yielded a CC50 below 35 µM.
The corresponding values for `CCNS(=O)(=O)c1ccc(CNc2nccn3c(-c4ccc(O)cc4)cnc23)cc1` [Compound 102] are 1000 to 20000 nM and above 35 µM.
On the same counts, the results for `NC(=O)c1ccc(CNc2nccn3c(-c4ccc(O)cc4)cnc23)cc1` [Compound 48] are 1000 to 20000 nM and above 35 µM.
The corresponding values for `NS(=O)(=O)c1ccc(CNc2nccn3c(-c4ccc(O)c([N+](=O)[O-])c4)cnc23)cc1` [Compound 54] are 1000 to 20000 nM and above 35 µM.
In the case of `Oc1ccc(-c2cnc3c(NCc4ccccc4Cl)nccn23)cc1` [Compound 37], in the series with HCV replicon, the EC50 is 1000 to 20000 nM. In addition, in series [1], the CC50 is above 35 µM.
The corresponding values for `Cc1cc(-c2cnc3c(NCc4ccc(S(N)(=O)=O)cc4)nccn23)ccc1O` [Compound 88, 4-{[3-(4-Hydroxy-3-methyl-phenyl)-imidazo[1,2-a]pyrazin-8-ylamino]-methyl}-benzenesulfonamide] are below 1000 nM and above 35 µM.
On the same counts, the results for `CN1CCN(c2ccc(-c3cnc4c(Nc5cccc(OC(F)(F)C(F)F)c5)nccn34)cn2)CC1` [Compound 63] are 1000 to 20000 nM and below 35 µM.
The corresponding values for `COc1ccc(CNc2nccn3c(-c4cccc(NS(C)(=O)=O)c4)cnc23)cc1` [Compound 83] are 1000 to 20000 nM and below 35 µM.
`N#Cc1cc(-c2cnc3c(NCc4ccc(S(N)(=O)=O)cc4)nccn23)ccc1O` [Compound 51] had an EC50 in the series on HCV replicon above 20000 nM. In series [1], the CC50 was above 35 µM.
The corresponding values for `CS(=O)(=O)c1ccc(CNc2nccn3c(-c4ccc(O)cc4)cnc23)cc1` [Compound 32] are 1000 to 20000 nM and above 35 µM.
On the same counts, the results for `Oc1ccc(-c2cnc3c(NCc4ccc5c(c4)OCO5)nccn23)cc1` [Compound 61] are 1000 to 20000 nM and below 35 µM.
On the same counts, the results for `COc1ccc(-c2cnc3c(NCc4ccco4)nccn23)cc1OC` [Compound 68] are 1000 to 20000 nM and below 35 µM.
Regarding `COc1ccc(-c2cnc3c(NCc4ccc(NS(C)(=O)=O)cc4)nccn23)cc1OC` [Compound 22], the EC50 in the series with HCV replicon was in the range of 1000 to 20000 nM. The same compound had a 50% cytotoxic concentration (CC50) in series [1] above 35 µM.
On the same counts, the results for `Cc1nc2c(NCc3ccc(S(N)(=O)=O)cc3)nccn2c1-c1ccc(O)cc1` [Compound 104, 4-{[3-(4-Hydroxy-phenyl)-2-methyl-imidazo[1,2-a]pyrazin-8-ylamino]-methyl}-benzenesulfonamide] are 1000 to 20000 nM and above 35 µM.
